Measured values taken from the supplement of paper PMC10307832.

Assays:
[1] = compound: CCOC(=O)CCNc1cc(N2CCc3ccccc3CC2)nc(-c2ccccn2)n1 [GSK-J4] + CC(=O)Nc1cccc(-n2c(=O)n(C3CC3)c(=O)c3c(Nc4ccc(I)cc4F)n(C)c(=O)c(C)c32)c1 [Trametinib] (partner 0.02 µM); assay: relative viability (nuclei count vs DMSO), 5 days (fraction); higher = more cells survive
Procedure, shortened: (§1)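 Medians of duplicate plates are given as relative viability. That measure is the nuclei count in treated wells divided by the count in vehicle wells. Counts were taken on 4× images of lung cancer cell lines in 1536-well plates, 5 days after pin-tool dosing the day after seeding with one drug alone or a fixed anchor-drug dose plus five library-drug doses (not always all listed) in √10 steps.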

[2] = compound: CCOC(=O)CCNc1cc(N2CCc3ccccc3CC2)nc(-c2ccccn2)n1 [GSK-J4] + NC(=O)Nc1cc(-c2cccc(F)c2)sc1C(=O)N[C@H]1CCCNC1 [AZD7762] (partner 0.2 µM); assay: as above
Procedure, shortened: as §1

Cell Line	relative viability ([1]; first compound 0.5 µM)	relative viability ([1]; first compound 1.581 µM)	relative viability ([1]; first compound 5 µM)	relative viability ([1]; first compound 15.81 µM)	relative viability ([1]; first compound 50 µM)	relative viability ([2]; first compound 0.5 µM)	relative viability ([2]; first compound 1.581 µM)	relative viability ([2]; first compound 5 µM)	relative viability ([2]; first compound 15.81 µM)	relative viability ([2]; first compound 50 µM)
NCI-H1993	0.514	0.504	0.497	0.544	0.532	0.805	0.683	1.04	0.604	0.435
NCI-H2009	0.262	0.266	0.195	0.252	0.199					
NCI-H2023	0.559	0.591	0.59	0.475	0.431					
NCI-H2085	0.482	0.663	0.586	0.517	0.57	0.926	0.896	0.888	0.792	0.936
NCI-H2087	0.189	0.171	0.257	0.169	0.222	1.09	1.25	1.05	1.23	0.8
NCI-H2126	0.567	0.575	0.566	0.503	0.503	1	0.928	1.05	0.891	0.89
NCI-H2170	0.852	0.882	0.958	0.872	0.829	0.776	0.839	0.774	0.667	0.836
NCI-H2228	0.523	0.526	0.48	0.415	0.334					
NCI-H2342	0.819	0.752	0.866	0.917	0.946	0.624	0.525	0.531	0.557	0.362
NCI-H2347	0.25	0.273	0.275	0.32	0.285	0.779	0.783	0.781	0.724	0.591
NCI-H2405	0.586	0.63		0.48	0.749	0.774	0.954		0.677	0.738
NCI-H3122	0.223	0.266	0.222	0.273	0.193	1.01	0.917	0.916	0.93	1
PC-3 [JPC-3]	0.783	0.551	0.598	0.647	0.64	1.04	0.55	0.932	0.748	0.555
PC-14	0.68	0.663	0.503	0.738	0.691	0.503	0.316		0.315	0.343
RERF-LC-KJ	0.85	0.845	0.931	0.708	0.66	0.916	0.825	0.812	0.821	0.672
SK-LU-1	0.468	0.499	0.385	0.43	0.383					
SK-MES-1	0.56	0.582	0.497	0.489	0.478					
SW 900	0.548	0.691	0.877	0.785	0.83	0.68	0.676	0.597	0.57	0.55
SW 1573	0.577	0.474	0.651	0.599	0.381					
